From US12213482B2, “Fungicide enhancers effective for treating plants infected with fungal pathogens” (Board of Regents, The University of Texas System, priority 2015, dated 2025)

Tests used:
[1] = system: Colletotrichum graminicola; assay: Antifungal susceptibility disk test, fungicide disk plus apyrase inhibitor in plate; format: cell-based; conditions: inhibitor 65 μM, 30° C., 7 days; for inhibitory effect on the growth of C. graminicola compared to copper octanoate alone: combined with copper octanoate (285 mM) disk, FIG. 3A; for inhibitory effect on the growth of C. graminicola compared to myclobutanil alone: combined with myclobutanil (53.6 mM) disk, FIG. 3B
Description: Copper Octanoate, 3B. Propiconazole, and 3C. Myclobutanil against the pathogenic fungi Colletotrichum graminicola. […] The equivalent volume of dimethylsulphoxide (DMSO) was added as a control. The studies were repeated two times with similar results. Error bars indicate standard deviations (n=5). The significances of the potency of fungicides are indicated: *** (Student's t-test, P<0.001; **(Student's t-test, P<0.01) or *(Student's t-test, P<0.05). The plant pathogenic fungal strains Botrytis cinerea, Colletotrichum graminicola, Fusarium oxysporum, Sclerotiana sclerotiorum and Verticillium dahliae were obtained from the Institute for Plant Genomics & Biotechnology, Texas A & M University, USA Potato dextrose agar (PDA, Sigma-Aldrich) was routinely used for the growth of different pathogenic fungal strain. Ectophosphatase inhibitors NGXT191 (AI.1), AI.10, NGXT1913 (AI.13), and AI. 15 were used dal this study. The fungicides copper octanoate (C16H30CuO4), myclobutanil (C15H17ClN4) and propiconazole (C15H17Cl2N3O2) were used. The concentrations of these compounds used were copper octanoate (285 mM), myclobutanil (53.6 mM) and propiconazole (418 mM). Standard antifungal susceptibility disk tests were performed to determine any potentiating effect of ectophosphatase inhibitors on the growth of pathogenic fungus. The pathogenic fungus wild-type strains were plated on PDA medium with paper-disks containing, fungicides at the center of the plate. […] Plates were incubated at 30° C. for 7-days (C. graminicola and S. sclerotiorum) or 12-days (B. cinerea, F. oxysporum and V. dahliae), depending on the growth rate of the fungi. Plates were photographed, and the zone of fungal growth inhibition was measured by using IMAGE J™ software (NIH, USA). All the tests were performed with 5 replicates. The studies were performed two times. Results were analyzed for significance using Student T-tests.

Verticillium dahliae = assay: as above; format: cell-based; conditions: inhibitor 65 μM, 30° C., 12 days; for inhibitory effect on the growth of V. dahliae compared to copper octanoate alone: combined with copper octanoate (285 mM) disk, FIG. 6A; for inhibitory effect on the growth of V. dahliae compared to propiconazole alone: combined with propiconazole (418 mM) disk, FIG. 6C
Description: Copper Octanoate, 6B. Propiconazole, and 6C. Myclobutanil against the pathogenic fungi Verticillium dahliae. […] The equivalent volume of dimethylsulphoxide (DMSO) was added as a control. The studies were repeated two times with similar results. Error bars indicate standard deviations (n=5). The significances of the potency of fungicides are indicated: *** […]); **(Student's t-test, P<0.01) or *(Student's t test, P<0.05). The plant pathogenic fungal strains Botrytis cinerea, Colletotrichum graminicola, Fusarium oxysporum, Sclerotiana sclerotiorum and Verticillium dahliae were obtained from the Institute for Plant Genomics & Biotechnology, Texas A & M University, USA Potato dextrose agar (PDA, Sigma-Aldrich) was routinely used for the growth of different pathogenic fungal strain. Ectophosphatase inhibitors NGXT191 (AI.1), AI.10, NGXT1913 (AI.13), and AI. 15 were used dal this study. The fungicides copper octanoate (C16H30CuO4), myclobutanil (C15H17ClN4) and propiconazole (C15H17Cl2N3O2) were used. The concentrations of these compounds used were copper octanoate (285 mM), myclobutanil (53.6 mM) and propiconazole (418 mM). Standard antifungal susceptibility disk tests were performed to determine any potentiating effect of ectophosphatase inhibitors on the growth of pathogenic fungus. The pathogenic fungus wild-type strains were plated on PDA medium with paper-disks containing, fungicides at the center of the plate. […] Plates were incubated at 30° C. for 7-days (C. graminicola and S. sclerotiorum) or 12-days (B. cinerea, F. oxysporum and V. dahliae), depending on the growth rate of the fungi. Plates were photographed, and the zone of fungal growth inhibition was measured by using IMAGE J™ software (NIH, USA). All the tests were performed with 5 replicates. The studies were performed two times. Results were analyzed for significance using Student T-tests.

Cc1cccc(NS(=O)(=O)c2ccc(-c3ccccc3)cc2)c1 [AI.1, N-(m-tolyl)-[1,1′-biphenyl]-4-sulfonamide]
significantly greater inhibitory effect: inhibitory effect on the growth of C. graminicola compared to copper octanoate alone [1] | inhibitory effect on the growth of C. graminicola compared to myclobutanil alone [1] | inhibitory effect on the growth of V. dahliae compared to copper octanoate alone (Verticillium dahliae)

CCCCCCCSC(=O)c1cc2ccccc2oc1=O [AI.10, S-heptyl 2-oxo-2H-chromene-3-carbothioate]
significantly greater inhibitory effect: inhibitory effect on the growth of C. graminicola compared to myclobutanil alone [1] | inhibitory effect on the growth of V. dahliae compared to copper octanoate alone (Verticillium dahliae) | inhibitory effect on the growth of V. dahliae compared to propiconazole alone (Verticillium dahliae)

O=C(Nc1cccc([N+](=O)[O-])c1)c1cccc(S(=O)(=O)Nc2ccc(Br)cc2)c1 [AI.13, 3-(N-(4-bromophenyl)sulfamoyl)-N-(3-nitrophenyl)benzamide]
significantly greater inhibitory effect: inhibitory effect on the growth of C. graminicola compared to copper octanoate alone [1] | inhibitory effect on the growth of C. graminicola compared to myclobutanil alone [1] | inhibitory effect on the growth of V. dahliae compared to copper octanoate alone (Verticillium dahliae)

C/C(=N\NC(=O)c1cccc(C)c1)c1ccc2ccccc2c1 [AI.15, (E)-3-methyl-N′-(1-(naphthalen-2-yl)ethylidene)benzohydrazide]
significantly greater inhibitory effect: inhibitory effect on the growth of C. graminicola compared to myclobutanil alone [1] | inhibitory effect on the growth of V. dahliae compared to copper octanoate alone (Verticillium dahliae) | inhibitory effect on the growth of V. dahliae compared to myclobutanil alone (Verticillium dahliae; combined with myclobutanil (53.6 mM) disk, FIG. 6B) | inhibitory effect on the growth of V. dahliae compared to propiconazole alone (Verticillium dahliae)
